Data on 20 compounds can be found in PubChem BioAssay (NCI).

Among the test systems are BT-549 breast; SNB-19 CNS; HCC-2998 colon; HOP-62 NSCLC; SF-268 CNS; SK-OV-3 ovarian; OVCAR-4 ovarian; NCI-H226 lung; IGROV1 ovarian; SNB-75 CNS.
What all share (test): growth of human tumour cells (NCI), 48 h

Values joined by “and” are separate entries in the source; they are usually repeats but may differ in a detail not shown here. Equal entries are not always repeated.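 Exposure lasted 48 hours, with cells grown in 96-well plates and compounds tested at five concentrations. GI50 marks 50% less growth. TGI is the concentration that stops growth completely.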 Where a SMILES comes first, the peptide text is derived from it. Bridges are numbered along the chain shown (N, C = ends). [ ]: non-standard residue; d: D form. The star is where a group is joined. ξ: configuration not given here. X26 = O=C(/C=C/C=C/C=C/C=C/C=C/C(=O)*)NC1=C(O)CCC1=O; NMeA = CN[C@@H](C)C(=O)O; ξF = NC(Cc1ccccc1)C(=O)O; ξA = CC(N)C(=O)O

With `C=CCNC(=S)N=Nc1c(O)[nH]c2ccc([N+](=O)[O-])cc12`, the TGI with BT-549 breast, with SNB-19 CNS, in the assay with HCC-2998 colon, in the assay on HOP-62 NSCLC, with SF-268 CNS and in the assay on SK-OV-3 ovarian was more than 100 µM in each case. Also, the TGI with OVCAR-4 ovarian, in the assay with NCI-H226 lung and in the assay on IGROV1 ovarian was more than 100 µM throughout.

For the compound `CC(C)=CCC/C(C)=C/COC(C)(C)C1=CCC(C)CC1` (stereo not given) (tested in a mixture with another compound), the TGI with BT-549 breast, with SNB-19 CNS, with SNB-75 CNS, in the assay with HCC-2998 colon, in the assay on HOP-62 NSCLC and in the assay with SF-268 CNS was more than 100 µM throughout. The TGI with SK-OV-3 ovarian, with OVCAR-4 ovarian and in the assay with IGROV1 ovarian was more than 100 µM in each case.

Regarding `CCOC(=O)c1c(-c2ccccc2)c(-c2ccccc2)cn1C`, the TGI in the assay with BT-549 breast, in the assay on SNB-19 CNS, in the assay with SNB-75 CNS, in the assay on HCC-2998 colon, with SF-268 CNS and in the assay with SK-OV-3 ovarian was more than 10 µM throughout. The TGI with OVCAR-4 ovarian, with NCI-H226 lung and in the assay on IGROV1 ovarian was more than 10 µM each time.

With `CC(C)(C)OC(=O)NCCC(N)=S`, the TGI with BT-549 breast, in the assay on SNB-19 CNS, in the assay on SNB-75 CNS, with HOP-62 NSCLC, in the assay on SF-268 CNS and in the assay with SK-OV-3 ovarian was more than 100 µM throughout. Further, the TGI in the assay with NCI-H226 lung and in the assay on IGROV1 ovarian was more than 100 µM in each case.

For `COc1ccc(-c2c3c([nH]c(=S)c2C#N)CC(C)(C)CC3=O)cc1`, the TGI in the assay on BT-549 breast, in the assay on SNB-19 CNS, in the assay with HCC-2998 colon, in the assay on HOP-62 NSCLC, in the assay on SF-268 CNS and with OVCAR-4 ovarian was more than 100 µM in each case. Besides, the TGI in the assay on NCI-H226 lung and with IGROV1 ovarian was more than 100 µM in each case.

`S=C(/N=c1\sc(Nc2ccc(Cl)cc2)nc2sc3c(c12)CCN(N1CCc2c(sc4nc(Nc5ccc(Cl)cc5)s/c(=N\C(=S)Nc5ccc(Cl)cc5)c24)C1)C3)Nc1ccc(Cl)cc1`: the TGI was more than 100 µM in the assay with BT-549 breast; more than 100 µM with SNB-19 CNS; 64.5 µM with SNB-75 CNS; more than 100 µM in the assay with HOP-62 NSCLC; more than 100 µM in the assay with SF-268 CNS; 66.4 µM in the assay on SK-OV-3 ovarian. The TGI with NCI-H226 lung and in the assay on IGROV1 ovarian was more than 100 µM throughout.

Take `COc1cc2c(cc1OC)[C@H]1CN3CCC[C@H]3C=C1c1ccc(OC)c(O)c1-2`: the TGI in the assay with BT-549 breast is 0.206 µM; in the assay on HCC-2998 colon, 0.0149 µM and 0.0736 µM; in the assay on SK-OV-3 ovarian, 0.000342 µM; in the assay on OVCAR-4 ovarian it was 0.00362 µM; in the assay with NCI-H226 lung, 0.0102 µM; in the assay with IGROV1 ovarian, 0.00323 µM and 0.0137 µM.

In the case of `COc1cc2cc(Oc3ccc(NC(=O)c4cc(C(F)(F)F)cc(C(F)(F)F)c4)cc3)c(C)nc2cc1OC`, the GI50 was 3.02 µM in the assay on BT-549 breast; 41.5 µM in the assay with SNB-75 CNS; more than 50 µM in the assay with HCC-2998 colon; more than 50 µM in the assay with HOP-62 NSCLC; more than 50 µM in the assay on SF-268 CNS; more than 50 µM in the assay with SK-OV-3 ovarian. Further, the GI50 is 4.53 µM in the assay on OVCAR-4 ovarian, 6.2 µM in the assay on NCI-H226 lung and 4.63 µM in the assay on IGROV1 ovarian. The TGI in the assay with BT-549 breast, in the assay with SNB-75 CNS, with HCC-2998 colon, in the assay with HOP-62 NSCLC, in the assay with SF-268 CNS and with SK-OV-3 ovarian was more than 50 µM each time. The TGI in the assay on OVCAR-4 ovarian, in the assay with NCI-H226 lung and in the assay with IGROV1 ovarian was more than 50 µM each time.

Take `CN(Cc1ccccc1)c1cc(=O)n(C)c(=O)[nH]1`: the TGI in the assay with BT-549 breast, with SNB-19 CNS, with HCC-2998 colon, in the assay on SF-268 CNS, in the assay on SK-OV-3 ovarian and with OVCAR-4 ovarian was more than 100 µM throughout. This compound registered a TGI in the assay with NCI-H226 lung of more than 100 µM.

Take `Oc1[nH]c2ccc(Br)cc2c1N=NC(=S)Nc1ccc(F)cc1`: the TGI in the assay on BT-549 breast is 2.7 µM; in the assay with SNB-75 CNS, 30 µM; in the assay on HOP-62 NSCLC, 60.5 µM; with SF-268 CNS, 35.7 µM; in the assay with SK-OV-3 ovarian it was 33.4 µM; in the assay on OVCAR-4 ovarian, 25.7 µM. The TGI amounted to 40.1 µM in the assay with NCI-H226 lung and 23.2 µM in the assay on IGROV1 ovarian.

Consider `CC1NC(=O)[C@H](C)N(C)C(=O)[C@@H]2CCCN2C(=O)[C@@H](NC(=O)C(Cc2ccccc2)NC(=O)/C=C/C=C/C=C/C=C/C=C/C(=O)NC2=C(O)CCC2=O)COC(=O)[C@@H]2CCCN2C1=O` (stereo not given in full) (X26-[ξF]SP[NMeA][ξA]P; ester 2-C), for which the TGI with BT-549 breast, with SNB-19 CNS, with SNB-75 CNS, in the assay with HCC-2998 colon, in the assay on HOP-62 NSCLC and in the assay on SF-268 CNS was more than 100 µM in each case. Moreover, the TGI with SK-OV-3 ovarian, with OVCAR-4 ovarian and in the assay with IGROV1 ovarian was more than 100 µM throughout.

For `O=C(Nc1ccccc1F)c1cc2ccc(O)cc2oc1=Nc1ccccc1F`, the TGI in the assay on BT-549 breast stood at 6.95 µM; in the assay with SNB-19 CNS it was 18.6 µM; with HCC-2998 colon, 8.04 µM; with HOP-62 NSCLC, 4.31 µM; in the assay with SF-268 CNS, 5.26 µM; with SK-OV-3 ovarian it was 42.1 µM. Further, the TGI with OVCAR-4 ovarian came to 3.94 µM; in the assay on IGROV1 ovarian it was 4.13 µM.

On to `CC(=O)O[C@H]1C(=O)[C@@]2(C)[C@H]([C@H](OC(=O)c3ccc(F)cc3)[C@]3(O)C[C@H](OC(=O)[C@H](O)[C@@H](NC(=O)c4ccccc4)c4ccccc4)C(C)=C1C3(C)C)[C@]1(OC(C)=O)CO[C@@H]1C[C@@H]2O`, for which the TGI in the assay with BT-549 breast was more than 25 µM; with SNB-19 CNS, more than 25 µM; in the assay with SNB-75 CNS, 0.659 µM; in the assay with HCC-2998 colon, 0.174 µM; in the assay with HOP-62 NSCLC it was more than 25 µM; with SF-268 CNS, more than 25 µM. Also, the TGI in the assay on OVCAR-4 ovarian, in the assay with NCI-H226 lung and in the assay with IGROV1 ovarian was more than 25 µM throughout.

Turning to `N/C(=N\S(=O)(=O)c1c(C(F)(F)F)cccc1C(F)(F)F)Nc1ccc(Cl)cc1`, the TGI in the assay on BT-549 breast is 96 µM; in the assay with SNB-19 CNS, more than 100 µM; in the assay on SNB-75 CNS it was more than 100 µM; with HOP-62 NSCLC, more than 100 µM; with SF-268 CNS, more than 100 µM; with SK-OV-3 ovarian, more than 100 µM. In addition, the TGI was more than 100 µM in the assay on OVCAR-4 ovarian, more than 100 µM in the assay with NCI-H226 lung and 60.2 µM in the assay with IGROV1 ovarian.

On to `Cc1ccc(OCCn2cc(Nc3ccccc3)c(=O)n(CCOc3ccc(C)cc3)c2=O)cc1`, for which the TGI in the assay with BT-549 breast, with SNB-19 CNS, in the assay with SNB-75 CNS, with HCC-2998 colon, with SF-268 CNS and with OVCAR-4 ovarian was more than 100 µM each time. Further, the TGI in the assay on NCI-H226 lung and in the assay on IGROV1 ovarian was more than 100 µM in each case.

As for `CC(=O)c1cccn1/C=C(\OC(=O)OC(C)(C)C)c1ccc[nH]1`, the TGI with BT-549 breast is more than 100 µM; with SNB-19 CNS, more than 100 µM; in the assay on SNB-75 CNS, 67.2 µM; in the assay with HCC-2998 colon it was more than 100 µM; in the assay on HOP-62 NSCLC, more than 100 µM; in the assay on SF-268 CNS, more than 100 µM. Further, the TGI in the assay with OVCAR-4 ovarian, in the assay with NCI-H226 lung and in the assay on IGROV1 ovarian was more than 100 µM in each case.

As for `CCOC(=O)C(Cl)(Cl)/S(=N\S(=O)(=O)c1ccccc1)NC(=O)c1ccccc1` (stereo not given), the TGI in the assay with BT-549 breast, in the assay on SNB-19 CNS, in the assay with SNB-75 CNS, with HOP-62 NSCLC, in the assay with SF-268 CNS and in the assay on SK-OV-3 ovarian was more than 100 µM in each case. Also, the TGI in the assay with OVCAR-4 ovarian, in the assay with NCI-H226 lung and in the assay with IGROV1 ovarian was more than 100 µM in each case.

For the compound `O=c1[nH]cnc2c1ncn2[C@@H]1C[C@@H]1CO`, the TGI in the assay on BT-549 breast, in the assay with SNB-19 CNS, in the assay with SNB-75 CNS, in the assay with HCC-2998 colon, in the assay on HOP-62 NSCLC and in the assay on SF-268 CNS was more than 100 µM each time. Besides, the TGI in the assay on OVCAR-4 ovarian, with NCI-H226 lung and in the assay with IGROV1 ovarian was more than 100 µM each time.

As for `N=C(N)c1ccc(-c2ccc(-c3cccs3)s2)cc1`, the GI50 in the assay with BT-549 breast was 3.77 µM; in the assay with SNB-75 CNS it was 1.69 µM; in the assay with HCC-2998 colon, 0.747 µM; in the assay on SF-268 CNS, 1.87 µM; in the assay with SK-OV-3 ovarian, 4.15 µM; with OVCAR-4 ovarian it was 1.71 µM. Further, the figures for the GI50 with NCI-H226 lung and in the assay on IGROV1 ovarian were 4.03 µM and 1.84 µM, respectively. In addition, the TGI in the assay with BT-549 breast amounted to 14.5 µM; in the assay with SNB-75 CNS, 3.17 µM; in the assay on HCC-2998 colon, 2.17 µM; in the assay on SF-268 CNS it was 4.41 µM; with SK-OV-3 ovarian, 9.64 µM; in the assay on OVCAR-4 ovarian, 4.24 µM. For the same compound, the TGI in the assay on NCI-H226 lung came to 33 µM; in the assay with IGROV1 ovarian, 3.53 µM.

On to `N#CCc1nc(-c2ccccc2)n[nH]1`, for which the TGI in the assay on BT-549 breast, with SNB-19 CNS, in the assay with SNB-75 CNS, in the assay on HCC-2998 colon, with HOP-62 NSCLC and in the assay on SF-268 CNS was more than 100 µM throughout. Moreover, the TGI in the assay with SK-OV-3 ovarian, in the assay with OVCAR-4 ovarian and in the assay with IGROV1 ovarian was more than 100 µM throughout.
